Test [1] deals with T1, P180C/E186C PTP1B (protein tyrosine phosphatase 1B) (Homo sapiens, UniProt P18031, E186C/P180C).
T1 sequence (P18031 1-435 P180C/E186C): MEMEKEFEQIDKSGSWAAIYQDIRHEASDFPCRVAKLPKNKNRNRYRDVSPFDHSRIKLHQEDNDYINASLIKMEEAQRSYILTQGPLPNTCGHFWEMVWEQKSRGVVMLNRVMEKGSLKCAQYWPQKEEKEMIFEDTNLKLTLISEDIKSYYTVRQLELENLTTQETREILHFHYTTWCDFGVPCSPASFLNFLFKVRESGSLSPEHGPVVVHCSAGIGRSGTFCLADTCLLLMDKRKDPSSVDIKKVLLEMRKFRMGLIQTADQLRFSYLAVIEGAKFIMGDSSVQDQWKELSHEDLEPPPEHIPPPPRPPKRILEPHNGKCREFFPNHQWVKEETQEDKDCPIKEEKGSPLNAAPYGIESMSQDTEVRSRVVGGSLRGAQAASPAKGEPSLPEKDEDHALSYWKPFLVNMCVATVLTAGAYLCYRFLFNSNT
Kind of test: pNPP phosphatase assay with purified enzyme. It counts as biochemical.

For test [2], the target named is T1, P180C/E186C PTP1B (protein tyrosine phosphatase 1B). The test can be described thus: biochemical.
The target of test [3] is P180C/P185C PTP1B (protein tyrosine phosphatase 1B) (Homo sapiens, UniProt P18031, P180C/P185C). The test can be described thus: biochemical.
For test [4], the target named is wild-type PTP1B (protein tyrosine phosphatase 1B) (Homo sapiens, UniProt P18031). The test can be described thus: biochemical.

These results are taken from publication PMC3288891 (2012).

Sequence of wild-type PTP1B (protein tyrosine phosphatase 1B) (P18031 1-321 limits assumed): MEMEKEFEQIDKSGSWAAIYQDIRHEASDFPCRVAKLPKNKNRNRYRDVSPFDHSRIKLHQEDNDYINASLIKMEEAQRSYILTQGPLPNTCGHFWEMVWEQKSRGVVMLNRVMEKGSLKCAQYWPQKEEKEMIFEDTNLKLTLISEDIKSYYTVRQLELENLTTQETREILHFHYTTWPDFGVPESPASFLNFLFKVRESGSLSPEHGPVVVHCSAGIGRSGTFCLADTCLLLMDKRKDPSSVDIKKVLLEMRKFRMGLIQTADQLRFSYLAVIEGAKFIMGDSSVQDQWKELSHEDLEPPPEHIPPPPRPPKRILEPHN
Sequence of P180C/P185C PTP1B (protein tyrosine phosphatase 1B) (P18031 1-321 P180C/P185C limits assumed): as the sequence (P18031 1-321 limits assumed) above, with P180C, P185C counted along it

As to `O=C1OC2(c3ccccc31)c1ccc(O)c([As]3SCCS3)c1Oc1c2ccc(O)c1[As]1SCCS1` [FlAsH-EDT2, 4′,5′-bis(1,3,2-dithioarsolan-2-yl)fluorescein], in test [1], the IC50 (usually the concentration that gives 50% inhibition) is roughly 130 nM.

`O=[N+]([O-])c1ccc(OP(=O)(O)O)cc1` [para-nitrophenyl phosphate]: the Km – broadly, the substrate concentration at which the rate is half of its maximum – in test [2] was determined as 980 ± 90 µM; in test [3], 2030 ± 250 µM; in test [4], 2290 ± 210 µM.
